In ChEMBL document CHEMBL5537118, “Synthesis of cinnamoyl tethered indoline derivatives with anti-inflammatory and antioxidant activities” (Eur J Med Chem, 2024):
Activity calls are given as the source filed them. The rule behind the calls is not given here.

Experiments:
[1] = Cytotoxicity against mouse RAW264.7 cells assessed as cell viability at 2 to 10 uM measured after 24 hrs; type: toxicity, cell-based; conditions: dose 2-10 µM, read-out: Activity
RAW264.7 [2] = assay: Inhibition of NF-kappaB activation in LPS-induced mouse RAW264.7 cells assessed as reduction in IkappaBalpha degradation at 0.5 to 2 uM by Western blot analysis; type: cell-based; conditions: dose 0.5-2 µM
Mus musculus [3] = assay: Antiinflammatory activity in carrageenan-induced Kunming mouse model of paw edema assessed as edema inhibition at 1 mg/kg, ip pretreated for 1 hr followed by carrageenan administration and measured after 1 hr relative to control; type: functional; conditions: time 2 hrs
Mus musculus [4] = assay: Antiinflammatory activity in carrageenan-induced Kunming mouse model of paw edema assessed as paw volume at 30 mg/kg, IG pretreated for 1 hr followed by carrageenan administration and measured after 1 hr by digital plethysmometer (reference value: 0.407 +/- 0.023 mL); type: functional; conditions: time 2 hrs
RAW264.7 [5] = assay: Antioxidant activity in LPS-induced mouse RAW264.7 cells assessed as upregulation of HO-1 protein expression incubated for 24 hrs by Western blot analysis; type: functional, cell-based; conditions: dose 0.5-2 µM
Mus musculus [6] = assay: Antiinflammatory activity in carrageenan-induced Kunming mouse model of paw edema assessed as paw volume at 1 mg/kg, ip pretreated for 1 hr followed by carrageenan administration and measured immediately by digital plethysmometer (reference value: 0.116 +/- 0.042 mL); type: functional
RAW264.7 [7] = assay: Inhibition of ROS burst in rotenone-stimulated mouse RAW264.7 cells assessed as reduction in ROS level at 1 uM pretreated for 30 mins followed by rotenone addition and measured after 4 hrs by DCFH-DA staining based flow cytometry analysis relative to control; type: functional; conditions: time 4.5 hrs
RAW264.7 [8] = assay: Antiinflammatory activity in LPS-induced mouse RAW264.7 cells assessed as inhibition of iNOS protein expression at around 2 uM incubated for 24 hrs by Western blot analysis relative to control; type: functional
Mus musculus [9] = assay: Antiinflammatory activity in carrageenan-induced Kunming mouse model of paw edema assessed as paw volume at 10 mg/kg, ip pretreated for 1 hr followed by carrageenan administration and measured after 3 hrs by digital plethysmometer (reference value: 0.377 +/- 0.018 mL); type: functional; conditions: time 4 hrs
Mus musculus [10] = assay: Antiinflammatory activity in carrageenan-induced Kunming mouse model of paw edema assessed as paw volume at 30 mg/kg, ip pretreated for 1 hr followed by carrageenan administration and measured after 3 hrs by digital plethysmometer (reference value: 0.377 +/- 0.018 mL); type: functional; conditions: time 4 hrs
Mus musculus [11] = assay: Antiinflammatory activity in carrageenan-induced Kunming mouse model of paw edema assessed as paw volume at 30 mg/kg, ip pretreated for 1 hr followed by carrageenan administration and measured after 1 hr by digital plethysmometer (reference value: 0.395 +/- 0.017 mL); type: functional; conditions: time 2 hrs
Mus musculus [12] = assay: Antiinflammatory activity in carrageenan-induced Kunming mouse model of paw edema assessed as edema inhibition at 10 mg/kg, ip pretreated for 1 hr followed by carrageenan administration and measured after 3 hrs relative to control; type: functional; conditions: time 4 hrs
Mus musculus [13] = assay: Antioxidant activity in ip dosed carrageenan-induced Kunming mouse model of paw edema assessed as increase in HO-1 protein expression in paw tissue pretreated for 1 hr followed by carrageenan administration and measured after 5 hrs by Western blot analysis; type: functional, organism-based; conditions: dose 1-30 mg/kg, time 6.0 hrs
Mus musculus [14] = assay: Antiinflammatory activity in carrageenan-induced Kunming mouse model of paw edema assessed as edema inhibition at 30 mg/kg, IG pretreated for 1 hr followed by carrageenan administration and measured after 5 hrs relative to control; type: functional; conditions: po, time 6 hrs
Mus musculus [15] = assay: Antiinflammatory activity in carrageenan-induced Kunming mouse model of paw edema assessed as edema inhibition at 10 mg/kg, ip pretreated for 1 hr followed by carrageenan administration and measured after 1 hr relative to control; type: functional; conditions: time 2 hrs
RAW264.7 [16] = assay: Antioxidant activity in H2O2-stimulated mouse RAW264.7 cells assessed as protection against cell damage at 2 to 5 uM pretreated for 30 mins followed by H2O2 stimulation and measured after 4 hrs by MTT assay; type: functional, cell-based; conditions: dose 2-5 µM, time 4.5 hrs
RAW264.7 [17] = assay: Antiinflammatory activity in LPS-induced mouse RAW264.7 cells assessed as reduction in IL-6 level incubated for 24 hrs by ELISA; type: functional, cell-based
Mus musculus [18] = assay: Antiinflammatory activity in carrageenan-induced Kunming mouse model of paw edema assessed as edema inhibition at 30 mg/kg, IG pretreated for 1 hr followed by carrageenan administration and measured after 3 hrs relative to control; type: functional; conditions: po, time 4 hrs
Mus musculus [19] = assay: Antiinflammatory activity in carrageenan-induced Kunming mouse model of paw edema assessed as edema inhibition at 30 mg/kg, ip pretreated for 1 hr followed by carrageenan administration and measured after 5 hrs relative to control; type: functional; conditions: time 6 hrs
Mus musculus [20] = assay: Antioxidant activity in carrageenan-induced Kunming mouse model of paw edema assessed as reduction in MDA level in paw tissue at 1 to 30 mg/kg, ip pretreated for 1 hr followed by carrageenan administration and measured after 5 hrs by ELISA; type: functional, organism-based; conditions: dose 1-30 mg/kg, time 6.0 hrs
Mus musculus [21] = assay: Antiinflammatory activity in carrageenan-induced Kunming mouse model of paw edema assessed as paw volume at 1 mg/kg, ip pretreated for 1 hr followed by carrageenan administration and measured after 5 hrs by digital plethysmometer (reference value: 0.362 +/- 0.016 mL); type: functional; conditions: time 6 hrs
Mus musculus [22] = assay: Antiinflammatory activity in carrageenan-induced Kunming mouse model of paw edema assessed as paw volume at 1 mg/kg, ip pretreated for 1 hr followed by carrageenan administration and measured after 3 hrs by digital plethysmometer (reference value: 0.377 +/- 0.018 mL); type: functional; conditions: time 4 hrs
Mus musculus [23] = assay: Antiinflammatory activity in carrageenan-induced Kunming mouse model of paw edema assessed as reduction in iNOS protein expression in paw tissue at 1 to 30 mg/kg, ip pretreated for 1 hr followed by carrageenan administration and measured after 5 hrs by Western blot analysis; type: functional, organism-based; conditions: dose 1-30 mg/kg, time 6.0 hrs
Mus musculus [24] = assay: Antiinflammatory activity in carrageenan-induced Kunming mouse model of paw edema assessed as paw volume at 30 mg/kg, IG pretreated for 1 hr followed by carrageenan administration and measured immediately by digital plethysmometer (reference value: 0.144 +/- 0.026 mL); type: functional
Mus musculus [25] = assay: Antiinflammatory activity in carrageenan-induced Kunming mouse model of paw edema assessed as paw volume at 30 mg/kg, ip pretreated for 1 hr followed by carrageenan administration and measured immediately by digital plethysmometer (reference value: 0.116 +/- 0.042 mL); type: functional
RAW264.7 [26] = assay: Inhibition of NF-kappaB activation in LPS-induced mouse RAW264.7 cells assessed as inhibition of IkappaBalpha phosphorylation by measuring reduction in p-IkappaBalpha/IkappaBalpha expression at 0.5 to 2 uM by Western blot analysis; type: cell-based; conditions: dose 0.5-2 µM
Mus musculus [27] = assay: Antiinflammatory activity in carrageenan-induced Kunming mouse model of paw edema assessed as paw volume at 1 mg/kg, ip pretreated for 1 hr followed by carrageenan administration and measured after 1 hr by digital plethysmometer (reference value: 0.395 +/- 0.017 mL); type: functional; conditions: time 2 hrs
RAW264.7 [28] = assay: Effect on HO-1 protein expression in mouse RAW264.7 cells at 0.5 to 2 uM incubated for 24 hrs by Western blot analysis; type: functional, cell-based; conditions: dose 0.5-2 µM
Mus musculus [29] = assay: Antiinflammatory activity in carrageenan-induced Kunming mouse model of paw edema assessed as paw volume at 10 mg/kg, ip pretreated for 1 hr followed by carrageenan administration and measured after 1 hr by digital plethysmometer (reference value: 0.395 +/- 0.017 mL); type: functional; conditions: time 2 hrs

- IC50 (RAW264.7 [17]; RAW264.7, 24 h): 1730 nM
SMILES: O=C(/C=C/c1ccc(O)c(O)c1)NCCCN1CCc2cc(Cl)ccc21
- viability at 24 h, 10 µM [1]: > 85%
- inhibition (RAW264.7 [2]): Active
- inhibition in vivo at 1 mg/kg (Mus musculus [3]): 27.6%
- Activity (Mus musculus [4]): 0.339 mL
- Activity (RAW264.7 [5]): Active
- Activity (Mus musculus [6]): 0.131 mL
- inhibition at 1 µM (RAW264.7 [7]): ~100%
- inhibition at 2 µM (RAW264.7 [8]): 50%
- Activity (Mus musculus [9]): 0.175 mL
- Activity (Mus musculus [10]): 0.143 mL
- Activity (Mus musculus [11]): 0.158 mL
- inhibition in vivo at 10 mg/kg (Mus musculus [12]): 82.8%
- Activity (Mus musculus [13]): Dose-Dependent Effect
- inhibition in vivo at 30 mg/kg (Mus musculus [14]): 58.1%
- inhibition in vivo at 10 mg/kg (Mus musculus [15]): 75.7%
- Activity (RAW264.7 [16]): Active
- Activity (RAW264.7 [17]): Dose-Dependent Effect
- inhibition in vivo at 30 mg/kg (Mus musculus [18]): 50%
- inhibition in vivo at 30 mg/kg (Mus musculus [19]): 94.1%
- Activity (Mus musculus [20]): Active
- Activity (Mus musculus [21]): 0.225 mL
- Activity (Mus musculus [22]): 0.267 mL
- Activity (Mus musculus [23]): Active
- Activity (Mus musculus [24]): 0.138 mL
- Activity (Mus musculus [25]): 0.131 mL
- inhibition (RAW264.7 [26]): Active
- Activity (Mus musculus [27]): 0.32 mL
- Activity (RAW264.7 [28]): inactive
- Activity (Mus musculus [29]): 0.189 mL
